The values that follow come from patent publication US20110212108A1, “NEUREGULIN/ERBB SIGNALING AND INTEGRIN” (THE REGENTS OF THE UNIVERSITY OF CALIFORNIA, priority 2008, published 2011).

In experiment [1] the test system is B-16 F10 Cells. As to the kind of experiment: B16F10 cell proliferation, MTS assay. Format: cell-based, mouse. The following applies: 24 hours. As for the experimental part: FIG. 10. […] B-16 F10 Cells were starved for 5 days in DMEM+1% FBS medium, and then added 3KE (175-222) and WT (175-222) NRG1 at indicated concentrations for 24 hours by MTS assays. P=0.0354 (between wt and 3KE+wt) and P<0.0001 (between wt and 3KE) by 2-way ANOVA.
(§1) Cell proliferation: cells were starved by culturing DMEM with low-level FCS (e.g., 0.4%) overnight and then treated with the wt or mutant NRG1 (175-222) (up to 100 ng/ml). The cells were harvested in 15 min to 6 h after stimulation and cell lysates analyzed by western blotting with antibodies specific to signaling molecules. Alternatively, cells were cultured for 24-48 h after stimulation for testing proliferation or cell viability by MTS assays. Statistical analysis and calculation of kinetic constants were performed using Prism software (Graphpad).
A general note: Tetrazolium dyes change colour on reduction, which living cells bring about.

The test system of experiment [2] is B16F10 melanoma cells. Kind of experiment: Western blotting of signaling in B16F10 cells. In kind it is cell-based, mouse. The following applies: 10 ng/ml. As to the method: FIG. 11. […] Cells were serum starved and stimulated with 10 ng/ml wt or mutant NRG1 (175-222). Cell lysates were analyzed by western blotting.
as §1
Signaling: The levels of cell proliferation were measured by MTS assays and the kinetic data were analyzed by using Prism software (Graphpad). Melanoma cells were cultured in the presence of wt or mutant NRG1 (175-222), and the levels of ErbB2 and B3 phosphorylation, MAP kinase activation, or activation of other signaling molecules in the cell lysates were monitored by immunoprecipitating ErbB2 and B3 from the lysates and detecting tyrosine phosphorylation by western blotting with anti-phosphotyrosine antibodies (the IP-Western method) for ErbB2 and B3. Alternatively, anti-phospho ErbB2 or B3 antibodies (commercially available) and anti-phospho ERK1/2 antibodies were used.

In experiment [3] the target is T1, CHO cells that express human α6β4 (Homo sapiens, UniProt P16144+P23229).
T1 construct: expressed in transfected cells; host or cells: CHO
Kind of experiment: Cell adhesion assay, α6β4-CHO cells. Format: cell-based. The conditions noted are these: DMEM, 1 h at 37° C. As to the method:
FIG. 17. CHO cells that express human α6β4 adhered to wt NRG1 (175-222) but not to the 3KE (175-222) mutant. Wells of 96-well microtiter plate were coated with wt or 3KE mutant NRG1 (175-222) and incubated with α6β4-CHO or β1-CHO cells in DMEM for 1 h at 37° C. as described herein. Bound cells were quantified.

Experiment [4] addresses T2, CHO cells that express human β3 (β3-CHO) (Homo sapiens, UniProt P05106).
T2 construct: expressed in transfected cells; host or cells: CHO
T2 sequence (P05106 27-788): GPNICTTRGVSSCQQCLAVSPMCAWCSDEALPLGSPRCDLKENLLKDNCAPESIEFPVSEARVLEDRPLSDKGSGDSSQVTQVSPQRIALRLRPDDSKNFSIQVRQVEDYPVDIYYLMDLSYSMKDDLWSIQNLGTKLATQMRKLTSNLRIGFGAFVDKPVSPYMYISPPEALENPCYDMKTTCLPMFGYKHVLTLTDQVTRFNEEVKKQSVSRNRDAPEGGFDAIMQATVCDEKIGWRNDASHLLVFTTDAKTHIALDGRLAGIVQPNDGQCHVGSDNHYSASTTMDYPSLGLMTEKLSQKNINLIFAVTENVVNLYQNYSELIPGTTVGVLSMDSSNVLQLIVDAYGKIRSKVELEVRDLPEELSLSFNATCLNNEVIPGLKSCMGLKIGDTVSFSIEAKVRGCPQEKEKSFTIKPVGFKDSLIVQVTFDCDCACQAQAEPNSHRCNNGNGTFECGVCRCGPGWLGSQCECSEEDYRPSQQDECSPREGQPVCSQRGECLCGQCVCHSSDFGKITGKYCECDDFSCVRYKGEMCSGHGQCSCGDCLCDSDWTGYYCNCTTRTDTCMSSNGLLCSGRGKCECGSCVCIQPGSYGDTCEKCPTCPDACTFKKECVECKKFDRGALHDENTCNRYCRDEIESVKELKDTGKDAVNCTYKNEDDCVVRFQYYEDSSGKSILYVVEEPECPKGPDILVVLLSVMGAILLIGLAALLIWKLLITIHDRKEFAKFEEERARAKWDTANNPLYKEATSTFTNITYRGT
Kind of experiment: Cell adhesion assay, β3-CHO cells. In kind it is cell-based. As to the method:
CHO or K562 cells expressing different recombinant integrins were previously known and available (Zhang et al. 1998; Tarui et al. 2006). Labeling of proteins with FITC or […] was performed according to manufacturers' instructions. Flow cytometry was performed as described above.
Cell adhesion and soluble integrin binding assays were performed as described previously (Mori, et al., 2008). NRG1α (175-241) was immobilized to wells of 96-well microtiter plate overnight at 4° C. in 0.1 M carbonate buffer, pH 2 9.4. Remaining protein binding sites were blocked by incubating with 200 μl of 0.1% BSA in PBS for 60 min at room temperature. Wells were then incubated with soluble integrin αvβ3 in 50 μl in Hepes-Tyrode's buffer supplemented with 1 mM Mn2+ at room temperature for 60 min. After rinsing the wells with the same buffer, bound integrins were determined by horseradish peroxidase (HRP)-conjugated anti-His tag mouse IgG and substrate 3,3′,5,5′-tetramethylbenzidine of HRP.

In experiment [5] the target is T3, Recombinant human ErbB3 Fc chimera (Homo sapiens, UniProt P21860).
T3 construct: Recombinant soluble ErbB3 Fc fusion protein was coated onto well of 96-well microtiter plate; purchased R&D Systems
As to the kind of experiment: ELISA-type binding to immobilized recombinant soluble ErbB3. The conditions noted are these: ErbB3 Fc coated at 1 μg/ml, 1 h room temperature. As for the experimental part:
FIG. 20. The 3KE mutant of NRG1α (175-241) binds to ErbB3. a). Binding of the 3KE mutant of NRG1α (175-241) to recombinant ErbB3. Recombinant soluble ErbB3 Fc fusion protein (R&D system) was coated onto wells of 96-well microtiter plate (1 μg/ml). NRG1α (175-241) WT or 3KE (175-241) mutant was added to the wells and incubated for 1 h at room temperature. GST was used as a control. After washing the wells, bound GST NRG1α (175-241) was determined by using anti-GST antibody HRP conjugate. […] Competitive binding assay. Recombinant soluble ErbB3 Fc fusion protein was coated onto well of 96-well microtiter plate (1 μg/ml). Binding of biotin labeled NRG1α (175-241) WT (20 nM) in the presence of increasing concentrations of NRG1α (175-241) WT, 3KE (175-241) or GST. After washing the wells, bound biotin labeled NRG1α (175-241) WT was determined by using streptavidin HRP conjugate.
For orientation: In an ELISA, binding on a coated surface is turned into a signal by an enzyme label.

T3 sequence (P21860 20-643 limits assumed, change not shown): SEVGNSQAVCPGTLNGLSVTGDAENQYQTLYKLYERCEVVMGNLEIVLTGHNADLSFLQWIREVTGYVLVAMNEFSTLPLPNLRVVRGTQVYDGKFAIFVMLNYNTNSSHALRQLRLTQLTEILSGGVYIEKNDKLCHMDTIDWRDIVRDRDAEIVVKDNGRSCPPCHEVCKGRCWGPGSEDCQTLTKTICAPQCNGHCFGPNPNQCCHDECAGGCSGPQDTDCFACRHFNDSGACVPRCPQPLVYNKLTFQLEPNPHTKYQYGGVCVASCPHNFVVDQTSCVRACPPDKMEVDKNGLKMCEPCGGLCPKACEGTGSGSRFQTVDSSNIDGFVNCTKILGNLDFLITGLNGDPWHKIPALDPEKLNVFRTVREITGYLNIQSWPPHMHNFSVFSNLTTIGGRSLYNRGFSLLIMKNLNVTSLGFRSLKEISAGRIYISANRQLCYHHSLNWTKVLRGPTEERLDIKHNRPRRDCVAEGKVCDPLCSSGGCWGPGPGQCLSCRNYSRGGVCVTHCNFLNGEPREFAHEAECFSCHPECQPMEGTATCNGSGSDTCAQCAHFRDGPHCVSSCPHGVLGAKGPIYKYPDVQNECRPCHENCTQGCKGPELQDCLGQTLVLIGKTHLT
T1 sequence (P23229 24-1130): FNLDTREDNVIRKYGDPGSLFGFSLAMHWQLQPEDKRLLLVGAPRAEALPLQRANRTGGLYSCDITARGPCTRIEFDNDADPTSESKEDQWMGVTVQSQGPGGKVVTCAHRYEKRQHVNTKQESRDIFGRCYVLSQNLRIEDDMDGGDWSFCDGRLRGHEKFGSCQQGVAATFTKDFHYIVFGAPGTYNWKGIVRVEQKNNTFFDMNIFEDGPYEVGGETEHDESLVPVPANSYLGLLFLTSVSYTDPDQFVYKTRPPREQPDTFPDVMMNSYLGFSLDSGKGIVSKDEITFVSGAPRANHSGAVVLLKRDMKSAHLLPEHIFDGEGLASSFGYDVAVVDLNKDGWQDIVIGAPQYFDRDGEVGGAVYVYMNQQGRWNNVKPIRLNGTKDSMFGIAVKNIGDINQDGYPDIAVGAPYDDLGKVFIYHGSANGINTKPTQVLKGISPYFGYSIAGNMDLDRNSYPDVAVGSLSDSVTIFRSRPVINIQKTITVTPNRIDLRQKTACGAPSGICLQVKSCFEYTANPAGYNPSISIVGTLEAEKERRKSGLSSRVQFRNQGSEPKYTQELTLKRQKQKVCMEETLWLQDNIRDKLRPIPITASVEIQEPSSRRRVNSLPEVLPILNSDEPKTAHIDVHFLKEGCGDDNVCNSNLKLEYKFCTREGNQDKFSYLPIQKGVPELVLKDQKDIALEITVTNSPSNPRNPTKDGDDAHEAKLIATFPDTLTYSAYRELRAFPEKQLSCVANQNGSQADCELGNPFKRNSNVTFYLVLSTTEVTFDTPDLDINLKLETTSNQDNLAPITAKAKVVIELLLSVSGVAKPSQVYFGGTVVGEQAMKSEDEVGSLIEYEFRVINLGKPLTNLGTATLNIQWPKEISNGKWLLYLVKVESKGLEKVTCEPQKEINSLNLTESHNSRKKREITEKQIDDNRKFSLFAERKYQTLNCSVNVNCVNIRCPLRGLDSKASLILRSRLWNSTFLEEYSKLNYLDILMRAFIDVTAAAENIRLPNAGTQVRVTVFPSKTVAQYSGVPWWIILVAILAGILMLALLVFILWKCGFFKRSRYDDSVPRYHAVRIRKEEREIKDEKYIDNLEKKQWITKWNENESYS
T1 sequence (P16144 28-1822): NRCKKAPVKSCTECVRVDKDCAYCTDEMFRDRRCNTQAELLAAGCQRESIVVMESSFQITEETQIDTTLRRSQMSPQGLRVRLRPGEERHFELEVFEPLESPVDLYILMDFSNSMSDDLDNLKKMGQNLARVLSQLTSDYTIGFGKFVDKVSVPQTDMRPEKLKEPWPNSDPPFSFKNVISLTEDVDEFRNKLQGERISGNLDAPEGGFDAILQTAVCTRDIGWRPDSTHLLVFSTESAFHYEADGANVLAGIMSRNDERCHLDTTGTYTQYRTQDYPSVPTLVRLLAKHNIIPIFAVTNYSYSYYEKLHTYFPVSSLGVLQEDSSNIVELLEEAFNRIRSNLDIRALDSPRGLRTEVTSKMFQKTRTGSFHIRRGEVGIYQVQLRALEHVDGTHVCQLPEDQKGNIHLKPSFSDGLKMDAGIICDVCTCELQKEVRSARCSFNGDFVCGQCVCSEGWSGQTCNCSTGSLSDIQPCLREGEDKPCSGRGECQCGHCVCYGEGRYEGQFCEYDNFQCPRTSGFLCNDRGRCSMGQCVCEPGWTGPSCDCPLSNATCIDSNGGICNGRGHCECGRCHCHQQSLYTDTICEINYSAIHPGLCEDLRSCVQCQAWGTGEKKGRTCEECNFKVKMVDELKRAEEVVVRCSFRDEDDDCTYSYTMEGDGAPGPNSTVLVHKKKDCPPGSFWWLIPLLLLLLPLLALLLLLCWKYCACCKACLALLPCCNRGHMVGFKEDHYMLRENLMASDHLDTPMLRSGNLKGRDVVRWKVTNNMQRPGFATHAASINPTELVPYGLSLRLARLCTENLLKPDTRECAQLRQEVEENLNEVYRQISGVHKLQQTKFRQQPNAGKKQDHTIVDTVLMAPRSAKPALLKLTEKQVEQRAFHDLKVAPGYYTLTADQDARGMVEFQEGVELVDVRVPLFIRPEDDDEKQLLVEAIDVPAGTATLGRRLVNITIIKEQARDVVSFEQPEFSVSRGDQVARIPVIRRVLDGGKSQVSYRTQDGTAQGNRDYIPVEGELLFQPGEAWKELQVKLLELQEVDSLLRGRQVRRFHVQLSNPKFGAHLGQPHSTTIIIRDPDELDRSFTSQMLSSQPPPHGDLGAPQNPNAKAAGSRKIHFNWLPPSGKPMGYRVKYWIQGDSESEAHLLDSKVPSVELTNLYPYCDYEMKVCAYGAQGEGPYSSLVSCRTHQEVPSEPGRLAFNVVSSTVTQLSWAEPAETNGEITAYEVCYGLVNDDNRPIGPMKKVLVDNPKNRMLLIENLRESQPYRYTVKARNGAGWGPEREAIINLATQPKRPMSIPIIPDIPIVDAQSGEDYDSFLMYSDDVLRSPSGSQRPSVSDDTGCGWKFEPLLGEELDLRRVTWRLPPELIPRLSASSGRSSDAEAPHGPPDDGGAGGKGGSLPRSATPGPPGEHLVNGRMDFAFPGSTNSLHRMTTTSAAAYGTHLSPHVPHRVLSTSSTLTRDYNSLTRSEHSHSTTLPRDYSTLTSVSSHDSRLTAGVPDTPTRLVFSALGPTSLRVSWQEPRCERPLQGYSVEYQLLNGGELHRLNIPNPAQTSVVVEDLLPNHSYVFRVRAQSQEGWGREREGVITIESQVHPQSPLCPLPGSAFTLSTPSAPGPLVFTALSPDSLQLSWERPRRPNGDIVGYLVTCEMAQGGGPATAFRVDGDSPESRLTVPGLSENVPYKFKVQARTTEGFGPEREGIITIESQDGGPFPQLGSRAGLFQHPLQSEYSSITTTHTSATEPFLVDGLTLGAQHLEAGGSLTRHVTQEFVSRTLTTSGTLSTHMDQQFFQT

For “3KE (175-222): NRG1 (175-222) with Lys181/Lys185/Lys187 mutated to Glu; GTSHLVECAEEEETFCVNGGECFMVKDLSNPSRYLCKCQPGFTGARCT (SEQ ID NO:11) (integrin-binding site within human neuregulin, 3KE mutant, short version)”, in experiment [1], the “Induction of cell proliferation in B16F10 cells” value is “did not induce them”. The “Suppression of cell proliferation in B16F10 cells” value in experiment [1] (P=0.0354 between wt and 3KE+wt) is “Suppression of cell proliferation”. Besides, in experiment [2], the “D1 cyclin levels in B16F10 cells” value is listed as “suppressed D1 cyclin levels very rapidly” and the “ERK1/2 activation in B16F10 cells” value was “did not induce them”. Further, in experiment [3], the “Adhesion of α6β4-CHO cells to the immobilized protein” value is given as “did not adhere”.
Turning to “wt NRG1 (175-222): wild type human neuregulin 1 fragment, EGF-like domain, residues 175-222 of SEQ ID NO:4 (SEQ ID NO:3) (GTSHLVKCAEKEKTFCVNGGECFMVKDLSNPSRYLCKCQPGFTGARCT; integrin-binding site within human neuregulin 1 EGF-like region and portion of alpha domain, residues 175-222 of human neuregulin 1 alpha) [reference compound]”, the “Adhesion of β3-CHO cells to the immobilized protein” value in experiment [4] is “adhered to NRG1 (175-222)”. In addition, in experiment [1], the “Induction of cell proliferation in B16F10 cells” value is “induced cell proliferation”. Also, in experiment [2], the “AKT activation in B16F10 cells” value is listed as “induced” and the “ERK1/2 activation in B16F10 cells” value is “induced”. The “Adhesion of α6β4-CHO cells to the immobilized protein” value in experiment [3] is “adhere”.

B1: WT NRG1α (175-241): wild type human neuregulin 1 fragment, residues 175-241 of SEQ ID NO:4 (SEQ ID NO:5), entire EGF-like motif and α domain (protein)
chain: GTSHLVKCAEKEKTFCVNGGECFMVKDLSNPSRYLCKCQPGFTGARCTENVPMKVQNQEKAEELYQK
modifications: integrin-binding site within human neuregulin, residues 175-241of human neuregulin 1alpha, long version
Take B1: the “Adhesion of β3-CHO cells to the immobilized protein” value in experiment [4] was “adhered to NRG1α (175-241)”. Besides, in experiment [5], the “Binding to immobilized soluble ErbB3 (ELISA-type assay)” value is recorded as “bound to immobilized soluble ErbB3 comparably”.

B2: 3KE (175-241): NRG1α (175-241) with Lys181/Lys185/Lys187 mutated to Glu, SEQ ID NO:6 (3KE, long version) (protein)
chain: GTSHLVECAEEEETFCVNGGECFMVKDLSNPSRYLCKCQPGFTGARCTENVPMKVQNQEKAEELYQK
modifications: integrin-binding site within human neuregulin, residues 175-241of human neuregulin 1alpha, long version, 3KE mutant
In the case of B2, the figures for the “Binding to immobilized soluble ErbB3 (ELISA-type assay)” value in experiment [5] (listed as 3KE mutant NRG1α (175-241)) and in experiment [5] (listed as 3KE mutant of NRG1α (175-241)) were “bound to immobilized soluble ErbB3 comparably” and “binds to ErbB3 at levels nearly comparable to WT NRG1α (175-241)”, respectively.
